Molecular target: E. coli DNA Gyrase (Escherichia coli, UniProt P0AES4+P0AES6)
Assay: Inhibition assay against E. coli DNA gyrase (plasmid supercoiling, agarose gel)
Type: biochemical
Conditions: 1 to 50 μM compound
Method: Inhibition Assays Against E. coli DNA Gyrase:
The reaction mixture (30 μl) contained 35 mM Tris-HCl at pH 7.5, 24 mM KCl, 4 mM MgCl2, 2 mM DTT, 1.75 mM ATP, 5 mM spermidine, 0.1 mg/ml BSA, 6.5% glycerol, 250 ng of the relaxed plasmid pBAD-GFPuv, 0.5 units of E. coli DNA Gyrase, and one of the compounds at a final concentration that ranges from 1 to 50 μM. All components were assembled on ice and incubated for 30 minutes at 37° C. After the incubation, the reactions were terminated by extraction with an equal volume of phenol. The topological state of the DNA samples was analyzed with 1% agarose gel electrophoresis in 1×TAE buffer, pH 7.8. Following electrophoresis, the agarose gel was stained with Ethidium Bromide, destained, and photographed under UV light. The intensity of DNA topoisomers was determined using KODAK 1D Image Analysis Software.

Sequence of E. coli DNA Gyrase (P0AES4 whole entry, one chain of several): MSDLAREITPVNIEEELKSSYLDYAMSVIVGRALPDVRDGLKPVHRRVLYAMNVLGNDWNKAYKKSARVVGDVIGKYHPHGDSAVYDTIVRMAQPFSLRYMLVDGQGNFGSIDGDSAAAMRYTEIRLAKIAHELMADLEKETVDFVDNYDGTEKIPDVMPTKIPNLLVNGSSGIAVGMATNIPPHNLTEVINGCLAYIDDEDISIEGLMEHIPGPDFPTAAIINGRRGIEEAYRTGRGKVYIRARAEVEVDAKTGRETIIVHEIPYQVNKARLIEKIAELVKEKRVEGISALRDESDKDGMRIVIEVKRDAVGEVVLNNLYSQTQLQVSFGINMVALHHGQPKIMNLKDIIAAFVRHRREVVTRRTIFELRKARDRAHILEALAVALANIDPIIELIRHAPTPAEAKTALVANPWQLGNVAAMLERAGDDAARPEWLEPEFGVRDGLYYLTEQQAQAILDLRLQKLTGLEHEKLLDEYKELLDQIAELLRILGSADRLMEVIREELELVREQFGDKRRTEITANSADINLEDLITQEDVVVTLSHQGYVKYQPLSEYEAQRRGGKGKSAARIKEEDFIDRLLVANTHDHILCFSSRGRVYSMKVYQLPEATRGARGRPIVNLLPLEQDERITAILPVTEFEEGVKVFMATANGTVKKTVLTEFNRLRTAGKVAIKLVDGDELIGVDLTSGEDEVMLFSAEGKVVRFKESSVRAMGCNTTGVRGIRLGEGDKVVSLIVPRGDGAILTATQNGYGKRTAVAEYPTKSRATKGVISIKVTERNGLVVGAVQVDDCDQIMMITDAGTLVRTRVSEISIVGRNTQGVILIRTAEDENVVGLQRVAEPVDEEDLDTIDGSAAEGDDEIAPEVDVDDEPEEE

CN1CCN(c2ccc3[nH]c(-c4ccc5[nH]c(-c6ccc(O)cc6)nc5c4)nc3c2)CC1 [Hoechst 33258, reference compound]
inhibition of DNA gyrase's activities: did not inhibit

— patent US9920014B2, “Selective inhibition of bacterial topoisomerase I” (THE FLORIDA INTERNATIONAL BOARD OF TRUSTEES MODESTO A. …, priority 2013, dated 2018)
